Several values for one entry are separate records, joined by “and”; a condition that tells them apart may be missing. Equal values may be shown once. Activity calls are given as the source filed them. The rule behind the calls is not given here.
Target: Prostaglandin E2 receptor EP2 subtype (Homo sapiens) (UniProt P43116)
Experiment: EP2 receptor modulators, dose response, cell-based, human EP2, PGE2 EC50 shift (AID 1421)
Conditions: EP2-expressing cells, PGE2 EC50 shift by compound

Prostaglandin E2 receptor EP2 subtype (Homo sapiens), sequence (P43116 whole entry, looked up): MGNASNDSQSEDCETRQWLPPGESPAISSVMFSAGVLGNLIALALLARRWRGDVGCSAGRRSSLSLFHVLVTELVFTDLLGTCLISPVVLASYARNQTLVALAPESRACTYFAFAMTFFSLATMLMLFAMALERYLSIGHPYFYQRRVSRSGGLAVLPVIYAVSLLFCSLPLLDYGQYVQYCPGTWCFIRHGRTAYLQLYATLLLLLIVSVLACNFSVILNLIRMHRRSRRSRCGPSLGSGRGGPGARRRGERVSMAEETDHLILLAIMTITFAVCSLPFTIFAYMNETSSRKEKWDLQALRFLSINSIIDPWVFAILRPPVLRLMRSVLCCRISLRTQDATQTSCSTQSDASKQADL

SMILES | outcome
CCOP(=O)(OCC)c1nc(-c2cccc3ccccc23)oc1NCc1ccc(OC)cc1 | active
Cc1ccc(CSc2ncnc3c2cnn3Cc2ccccc2)cc1C | active
COC1(C)CC2C(CC1OC(=O)c1cc([N+](=O)[O-])cc([N+](=O)[O-])c1)C2(C)C (stereo not given) | active
CCOC(=O)c1c(C)[nH]c(C=O)c1Cc1cccc(Cl)c1 | active
CCOC(=O)c1cc(CC)sc1NC(=O)c1ccc2c(c1)OCCO2 | active
Cc1cc(C)n(-c2nc3ccccc3nc2Nc2ccc3[nH]c(=O)[nH]c3c2)n1 | active
Cc1ccc(Cn2c(=O)n(Cc3ccco3)c(=O)c3ccccc32)cc1 | active
CCc1ccc(NC(=S)N(Cc2ccccc2)Cc2ccccn2)cc1 | active
COc1nc(-c2ccccc2)nnc1-c1ccccc1 | active
O=C(Nc1ccccc1Cl)N1CCSc2ccccc21 | active
CCSc1nc2sc3c(c2c(=O)n1CC)CC(C)(C)OC3 | active
CC(C)NC(=O)NC(=O)CSc1nnc(COc2ccccc2F)n1C(C)C1CC2CCC1C2 (stereo not given) | active
CCOC(=O)C1=C(CN2CCc3ccccc32)NC(=O)NC1c1ccc(Cl)cc1 (stereo not given) | active

Same assay, conditions: EP2-expressing cells, PGE2 EC50 shift by compound; measured here: PGE2 EC50 at 6.7 uM compound

SMILES | PGE2 EC50 with compound
CCOP(=O)(OCC)c1nc(-c2ccccc2)oc1NCc1ccccc1 | 1.04 nM
Brc1ccc(-c2ccc(/C=N/Nc3nc(N4CCOCC4)nc(N4CCOCC4)n3)o2)cc1 | 1.01 nM
Nc1cc(Cl)ccc1Oc1ccc(Cl)cc1 | 0.75 nM
CCOP(=O)(OCC)c1nc(-c2cccc3ccccc23)oc1NCc1ccc(OC)cc1 | 0.72 nM
c1ccc(-c2nn3c(-c4ccccc4)nnc3s2)cc1 | 0.84 nM
Cc1ccccc1Nc1cccc2nonc12 | 0.64 nM
COC(=O)c1c(NC(=O)c2ccc(Br)s2)sc2c1CCC2 | 1.14 nM
CCC(=O)O[C@H]1CCC2C3CCC4=CC(=O)CC[C@]4(C)C3CC[C@@]21C (stereo not given in full) | 0.76 nM
CC(Sc1ccc2ccccc2n1)C(=O)O (stereo not given) | 3.1 nM and 3.84 nM
CCCCCCC/C=C\CCCCCCCCC(=O)O | 1.56 nM
Cn1c(=O)[nH]c(=O)c2c1nc(CN1CCN(c3cccc(Cl)c3)CC1)n2Cc1ccccc1Cl | 0.94 nM
CCCCCCn1c(COc2ccccc2F)nnc1SCC(=O)N1c2ccccc2NC(=O)C1(C)C | 0.93 nM
COC[C@H]1OC(=O)c2coc3c2[C@@]1(C)C1=C(C3=O)C2CCC(=O)[C@@]2(C)C[C@H]1OC(C)=O (stereo not given in full) | 0.84 nM
COc1ccc(-c2nn3c(-c4ccccc4)nnc3s2)cc1 | 0.66 nM
CC(=O)c1ccc2c(c1)c1ccccc1n2CC(C)C | 1.35 nM
COC(=O)C(C)Sc1ncnc2c1nnn2-c1ccc(F)cc1 (stereo not given) | 1.11 nM
C/C(=C\c1ccc(C(=O)O)cc1)c1ccc2c(c1)C(C)(C)CCC2(C)C | 0.79 nM
CC(=O)Oc1ccc2ccccc2c1C(NC(=O)Cc1ccccc1)c1ccccc1 (stereo not given) | 1.1 nM
CC/C(=C\C1CCCCC1)C(NP(=O)(c1ccccc1)c1ccccc1)c1ccccc1 (stereo not given) | 1.01 nM
Cc1ccc(CSc2ncnc3c2cnn3Cc2ccccc2)cc1C | 1.08 nM
COC1(C)CC2C(CC1OC(=O)c1cc([N+](=O)[O-])cc([N+](=O)[O-])c1)C2(C)C (stereo not given) | 2.79 nM
N#Cc1c(N)nc2c3c(sc(=N)c2c1N)NC(=O)CC3c1c(F)cccc1Cl (stereo not given) | 0.74 nM
N#CC1=C(S)N(c2ccccc2)C2(CCCCC2)NC1=O | 1.12 nM
CCCc1cc(-c2nc(N)ncc2-c2ccc3c(c2)OCCCO3)c(O)cc1OC | 0.86 nM
CCOC(=O)C1=C(N)N2C(=O)C(C)SC2=C(C(=O)OC)C1c1ccccc1OC (stereo not given) | 0.51 nM
O=C(NCCC1=CCCCC1)c1cccc2c1C(=O)N(C1CCCCC1)C2 | 1.18 nM

SMILES | PGE2 EC50 with compound
Cc1c(OCc2ccccc2)c(=O)ccn1Cc1ccc(Cl)cc1 | 1.02 nM
Clc1ccc(Cl)c(-c2ccc(/C=N/c3ncn[nH]3)o2)c1 | 1.34 nM
Clc1ccccc1C1NCc2ccccc2-n2cccc21 (stereo not given) | 0.34 nM
CCOC(=O)c1c(NC(=O)CN2CCN(C(=O)c3ccco3)CC2)sc2c1CCCC2 | 0.85 nM
CCc1nc(N2CCC(C)CC2)c2oc3ccccc3c2n1 | 1.23 nM
CCCCc1nc(SCCOC)c2c(=O)n(C)c(=O)n(C)c2n1 | 1.42 nM
CCOC(=O)c1c(C)[nH]c(C=O)c1Cc1cccc(Cl)c1 | 0.98 nM
CCOC(=O)c1cnc2c(c(C)nn2C)c1Oc1ccc(Cl)cc1 | 1.29 nM
COc1ccc(Cl)cc1-n1c(C)ccc1C | 1.06 nM
CCOC(=O)c1sc(NC(=O)C(CC)OC(=O)C(CC(C)C)NC(=O)c2ccccc2)nc1C (stereo not given) | 1.22 nM
CC12CCCC(O)(C1)C1CC(C)(C)C1CC2 (stereo not given) | 1.55 nM
CCOC(=O)c1cc(CC)sc1NC(=O)c1ccc2c(c1)OCCO2 | 0.97 nM
CC1=C(/C=C/C(C)=C/C=C/C(C)=C/C(=O)O)C(C)(C)CCC1 | 1.19 nM
C/C(=N\N=C(c1ccccc1)c1ccccc1)c1ccco1 | 0.97 nM
Cc1cc(Br)c2nc3c(c(C(=O)O)c2c1)CCCCC3 | 2.78 nM
Cc1sc2ncnc(Sc3ccccc3C(=O)O)c2c1C | 2.7 nM
Cc1ccc2cccc(NC(=O)c3ccc(Br)o3)c2n1 | 0.83 nM
CC(C)c1cc(=O)oc2c3c4c(cc12)CCCN4CCC3 | 1.15 nM
CC(C)CCn1c(N2CCN(c3cccc(Cl)c3)CC2)nc2c1c(=O)[nH]c(=O)n2C | 0.93 nM
Cc1cc(C)n(-c2nc3ccccc3nc2Nc2ccc3[nH]c(=O)[nH]c3c2)n1 | 0.83 nM
O=C1CCC(C(=O)OCC(=O)N2N=C3/C(=C/c4ccccc4)CCCC3C2c2ccccc2)N1 (stereo not given) | 1.47 nM
Cc1ccc(Cn2c(=O)n(Cc3ccco3)c(=O)c3ccccc32)cc1 | 0.78 nM
CCOC(=O)Cc1csc(NC(=O)c2cc(=O)c3ccccc3o2)n1 | 1.36 nM
CCCCC(=O)Nc1sc2c(c1C(=O)OCC)CCC(C=O)=C2Cl | 0.91 nM
Cc1ccc(-c2cccc(C(=O)NCc3ccccc3)n2)c2ccccc12 | 0.32 nM
CCCN(CCC)C(C)C(=O)NCC1(c2ccccc2)CCCC1 (stereo not given) | 0.94 nM

SMILES | PGE2 EC50 with compound
Cc1cccc(C)c1N1CCN(c2ccc3nnc(C(F)(F)F)n3n2)CC1 | 0.52 nM
C=C(C)COc1ccc2c(c1)CC[C@@H]1[C@H]3C/C(=N/O)C(=O)[C@]3(C)CC[C@@H]21 | 1.03 nM
N#CCSc1nc2sc3c(c2c(=O)n1C1CCCCC1)CCCC3 | 0.76 nM
CN(C)c1ncc(S(=O)(=O)c2ccccc2)c(-c2ccccc2Cl)n1 | 0.72 nM
CCC(=O)Oc1ccc(C(CC)C(CC)c2ccc(OC(=O)CC)cc2)cc1 (stereo not given) | 0.32 nM
CCN(CC)P(=O)(Nc1ccccc1Br)c1ccc(N(C)C)cc1NC(=O)c1ccco1 (stereo not given) | 1.19 nM
CCOC(=O)c1c(NC(=O)c2c(Br)cnn2CC)sc(C)c1C | 0.9 nM
CCC(C)(C)c1ccc(OCC(=O)N(C)C)c(C(C)(C)CC)c1 | 5.61 nM
CCCOc1ccc(/C=N/Nc2ccc(C(=O)O)cc2)c(OCCC)c1 | 0.87 nM
Cn1c(=O)c2c(nc(SCC(=O)N3CCc4ccccc4C3)n2C)n(C)c1=O | 1.51 nM
CCOP(=O)(c1ccccc1)c1nc(-c2ccccc2Cl)oc1N1CCCCC1 (stereo not given) | 1.02 nM
Cc1ccc(/C=C/c2nc3ccccc3c(=O)n2CCc2ccccc2)cc1 | 1.15 nM
CCc1ccc(NC(=S)N(Cc2ccccc2)Cc2ccccn2)cc1 | 2.7 nM
COc1ccc(Cn2c(-c3ccc(OC)cc3)nc3ccccc32)cc1 | 1 nM
COc1nc(-c2ccccc2)nnc1-c1ccccc1 | 1.05 nM
Cc1ccc(Nc2nc(CSc3nnc(-c4ccccc4C)n3C)cs2)cc1 | 1.35 nM
O=[N+]([O-])c1ccc(Cl)c2c1C1C=CCC1C(c1ccccn1)N2 (stereo not given) | 0.69 nM
O=C(Nc1ccccc1Cl)N1CCSc2ccccc21 | 1.55 nM
CCSc1nc2sc3c(c2c(=O)n1CC)CC(C)(C)OC3 | 0.96 nM
O=C(CSc1nc2ccccc2o1)Nc1cc(C(F)(F)F)ccc1N1CCOCC1 | 0.77 nM
CCc1c(C)nc2ccc(Br)cc2c1SCCC#N | 2.61 nM
COc1ccc(C(=O)N2N=C(c3ccccc3)CC2(O)C(F)(F)F)cc1 (stereo not given) | 2.7 nM
Cc1cc(C)c2nc(N3CCCN(C(=O)c4ccco4)CC3)c(C#N)cc2c1 | 0.64 nM
COC(=O)c1cc(-c2ccc3c(c2)OCO3)nc2ccccc12 | 0.7 nM
COc1ccccc1Nc1cc(C)nc2c(C)ccc([N+](=O)[O-])c12 | 1.12 nM
CCOC(=O)c1c(NC(=O)CSc2nnnn2CC)sc(C)c1C | 0.81 nM

SMILES | PGE2 EC50 with compound
CC(C)NC(=O)NC(=O)CSc1nnc(COc2ccccc2F)n1C(C)C1CC2CCC1C2 (stereo not given) | 1.06 nM
O=C(COc1ccccc1)Nc1ccccc1N1CCN(c2ccccc2)CC1 | 1.48 nM
Oc1ccc(/C=N/N(Cc2ccccc2)c2ccccc2)cc1 | 0.76 nM
O=C(NCc1ccco1)C(c1cccs1)N(C(=O)Cc1cccs1)c1ccccc1 (stereo not given) | 1.49 nM
CCOC(=O)C1=C(CN2CCc3ccccc32)NC(=O)NC1c1ccc(Cl)cc1 (stereo not given) | 1.21 nM
Cc1ccc2c(c1)N(S(=O)(=O)c1ccc(F)cc1)C(C(C)(C)C)CO2 (stereo not given) | 1.11 nM
O=C(Nc1ccccc1N1CCCCC1)c1cccc(F)c1 | 0.95 nM
O=S1(=O)CCN(Cc2cccc(Cl)c2)CC1 | 1.39 nM
Cc1ccc(N(C(=O)c2snc(C(N)=O)c2N)C(C(=O)NCCC(C)C)c2ccco2)cc1 (stereo not given) | 2.61 nM
Cc1cccc(C(=O)c2cnc3ccccc3c2-c2ccccc2)c1 | 0.95 nM
CCOC(=O)CNC(=O)c1ccc2c(c1)OCCO2 | 2.56 nM
CN(N=O)c1ccc(O)c(O)c1 | 1.26 nM
CCN(c1cccc(C)c1)S(=O)(=O)c1ccc2c3c(cccc13)C(=O)N2 | 0.53 nM
O=C(CSc1nc2ccccc2o1)Nc1ccccc1N1CCCCCC1 | 0.78 nM
CCOC(=O)C(CC)Sc1ncnc2c1nnn2-c1ccc(F)cc1 (stereo not given) | 0.33 nM
O=C(CN1CCCCCC1)Nc1ccccc1Oc1ccccc1 | 0.96 nM
COc1ccc(-n2c(-c3ccccc3)nnc2-c2ccc(Cl)cc2)cc1 | 1.23 nM
Cc1sc(NC(=O)Cc2ccc3c(c2)OCO3)nc1-c1ccc2c(c1)CCN2C(=O)c1cccc(F)c1 | 0.97 nM
Nc1c(C(=O)NCc2ccccc2)c2nc3ccccc3nc2n1CCCN1CCOCC1 | 1.09 nM
CCOc1ccc(N(Cc2ccc(OC)cc2)C(=O)c2ccco2)cc1 | 1.12 nM
COc1ccccc1CN(C)CC(=O)Nc1ccccc1-c1ccccc1 | 1.43 nM
CCOC(=O)CC(=O)CSc1ncnc2c1oc1ccccc12 | 2.64 nM
NS(=O)(=O)c1ccc(NCc2cnc3ccccc3n2)cc1 | 0.64 nM
Cc1ccc(C)n1-n1cnc2scc(-c3cccs3)c2c1=O | 0.97 nM

From PubChem BioAssay AID1421 (Emory University Molecular Libraries Screening Center, 2008)
